The source of these data is patent US9765074B2, “Inhibitors of the renal outer medullary potassium channel” (Merck Sharp & Dohme Corp., priority 2013, dated 2017).

The structures appear in SMILES notation.

The assay concerns the target T1, hROMK (hKir1.1) (Homo sapiens, UniProt P48048).
T1 construct: expressed in transfected cells
T1 sequence (P48048 1-391): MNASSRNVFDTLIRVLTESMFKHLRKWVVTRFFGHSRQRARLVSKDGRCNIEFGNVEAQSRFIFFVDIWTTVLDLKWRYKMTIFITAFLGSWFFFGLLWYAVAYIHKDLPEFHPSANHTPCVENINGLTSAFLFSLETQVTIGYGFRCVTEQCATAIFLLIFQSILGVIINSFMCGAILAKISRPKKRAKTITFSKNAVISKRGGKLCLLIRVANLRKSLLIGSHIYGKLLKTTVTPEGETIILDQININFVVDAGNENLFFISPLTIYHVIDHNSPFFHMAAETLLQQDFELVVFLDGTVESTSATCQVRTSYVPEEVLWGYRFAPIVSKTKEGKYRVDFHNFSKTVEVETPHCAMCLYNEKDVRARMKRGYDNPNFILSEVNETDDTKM
Nature of the assay: Thallium Flux Assay (ROMK channel functional thallium flux, FLIPR-Tetra). The class given is cell-based. To be noted: HEK293 cells stably expressing hROMK (hKir1.1); 30 min compound incubation. In short, it runs like this:
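Thallium flux read by FluxOR fluorescence ([…]) for ~10 min after adding 3 mM Tl+/0.3 mM K+ final. Stable HEK-hKir1.1 cells were dye-loaded 90 min, exposed to compound 30 min at room temperature in ouabain/probenecid buffer; IC50 relative to a 3 μM control inhibitor.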
The molecule `CC1CC2(CCN(C(C)(C)C(O)c3cnc(-n4cnnn4)cn3)CC2)C(=O)N1C1=CC(=O)OC1` (single isomer, unassigned) [Example 303, 8-(1-(5-(1H-tetrazol-1-yl)pyrazin-2-yl)-1-hydroxy-2-methylpropan-2-yl)-3-methyl-2-(5-oxo-2,5-dihydrofuran-3-yl)-2,8-diazaspiro[4.5]decan-1-one] registered an IC50 of 2000 nM.
Under `Cc1cc(-n2cnnn2)ccc1[C@@H](O)CN1CCC2(CC1)CCN(C1=CC(=O)OC1)C2=O` [Example 11, 8-{(2R)-2-hydroxy-2-[2-methyl-4-(1H-tetrazol-1-yl)phenyl]ethyl}-1-oxo-2-(5-oxo-2,5-dihydrofuran-3-yl)-2-aza-8-azoniaspiro[4.5]decane] stands 20 nM; under `O=C1C=C(N2C(=O)C3(CCN(C[C@H](O)c4cnc(-n5cnnn5)cn4)CC3)CC2C2CC2)CO1` (mixture of isomers) [Example 213, 3-cyclopropyl-8-{(2S)-2-hydroxy-2-[5-(1H-tetrazol-1-yl)pyrazin-2-yl]ethyl}-2-(5-oxo-2,5-dihydrofuran-3-yl)-2,8-diazaspiro[4.5]decan-1-one], 40 nM; under `COC1CN(C[C@@H](O)c2ccc(-n3cnnn3)nc2)CCC12CCN(C1=C(C)C(=O)OC1)C2=O` (single isomer, unassigned) [Example 177], 70 nM.
Under `CC1=C(N2CCC3(CCN(C[C@@H](O)c4cccc(-n5cnnn5)c4)CC3)C2=O)COC1=O` [Example 62, 8-{(2S)-2-hydroxy-2-[3-(1H-tetrazol-1-yl)phenyl]ethyl}-2-(4-methyl-5-oxo-2,5-dihydrofuran-3-yl)-1-oxo-2-aza-8-azoniaspiro[4.5]decane] stands 40 nM; under `CC1=C(N2CC(O)C3(CC4CCC(C3)N4C[C@@H](O)c3ccc(-n4cnnn4)nc3)C2=O)COC1=O` (single isomer, unassigned) [Example 107], 110 nM.
Under `CC1=C(N2C(=O)C3(CCN(C[C@@H](O)c4ccc(-n5cnnn5)cc4C)CC3)CC2C)COC1=O` (single isomer, unassigned) [Example 140] stands 10 nM; under `CC1=C(N2C(=O)C3(CCN(CCc4ccc(-n5cnnn5)nn4)CC3)CC2C)COC1=O` (racemic) [Example 241, 3-methyl-2-(4-methyl-5-oxo-2,5-dihydrofuran-3-yl)-1-oxo-8-{2-[6-(1H-tetrazol-1-yl)pyridazin-3-yl]ethyl}-2-aza-8-azoniaspiro[4.5]decane], 20 nM; under `CC1=C(N2CCC3(CC4CCC(C3)N4CCc3ccc(-n4cnnn4)nn3)C2=O)COC1=O` [Example 235, (1S,5S)-1′-(4-methyl-5-oxo-2,5-dihydrofuran-3-yl)-2′-oxo-8-{2-[6-(1H-tetrazol-1-yl)pyridazin-3-yl]ethyl}spiro[8-azoniabicyclo[3.2.1]octane-3,3′-pyrrolidine]], 10 nM.
Consider `CC1=C(N2CCC3(CCN(C[C@H](OC(C)C)c4ccc(-n5cnnn5)nc4)CC3)C2=O)COC1=O` [Example 285, 8-{(2R)-2-(1-methylethoxy)-2-[6-(1H-tetrazol-1-yl)pyridin-3-yl]ethyl}-2-(4-methyl-5-oxo-2,5-dihydrofuran-3-yl)-1-oxo-2-aza-8-azoniaspiro[4.5]decane], for which it took 50 nM to reach half-maximal inhibition (IC50).
Under `CC1CC2(CC3CCC(C2)N3C[C@H](O)c2cnc(-n3cnnn3)cn2)C(=O)N1C1=CC(=O)OC1` (single isomer, unassigned) [Example 89] stands 30 nM.
Under `Cc1cc([C@H](O)CN2CCC3(CC2)CCN(C2=CC(=O)OC2)C3=O)ncc1-n1cnnn1` [Example 6, 8-{(2R)-2-hydroxy-2-[4-methyl-5-(1H-tetrazol-1-yl)pyridin-2-yl]ethyl}-1-oxo-2-(5-oxo-2,5-dihydrofuran-3-yl)-2-aza-8-azoniaspiro[4.5]decane] stands 50 nM.
